Source: PMC6804443 (Acta Pharmaceutica Sinica. B, 2019)
“Also recorded” adds a separate entry of the source.

What was measured:
[1] = molecular target: T1, CYP2C19 (Homo sapiens, UniProt P33261); assay: CYP2C19 inhibition by XueBiJing compounds, cDNA-expressed enzyme [CEC→CHC]; type: in vitro ADME
[2] = molecular target: T2, UGT1A6 (Homo sapiens, UniProt P19224); assay: UGT1A6 inhibition by XueBiJing compounds, cDNA-expressed enzyme [4-MU→4-MUG]; type: in vitro ADME
T2 sequence (P19224 27-532): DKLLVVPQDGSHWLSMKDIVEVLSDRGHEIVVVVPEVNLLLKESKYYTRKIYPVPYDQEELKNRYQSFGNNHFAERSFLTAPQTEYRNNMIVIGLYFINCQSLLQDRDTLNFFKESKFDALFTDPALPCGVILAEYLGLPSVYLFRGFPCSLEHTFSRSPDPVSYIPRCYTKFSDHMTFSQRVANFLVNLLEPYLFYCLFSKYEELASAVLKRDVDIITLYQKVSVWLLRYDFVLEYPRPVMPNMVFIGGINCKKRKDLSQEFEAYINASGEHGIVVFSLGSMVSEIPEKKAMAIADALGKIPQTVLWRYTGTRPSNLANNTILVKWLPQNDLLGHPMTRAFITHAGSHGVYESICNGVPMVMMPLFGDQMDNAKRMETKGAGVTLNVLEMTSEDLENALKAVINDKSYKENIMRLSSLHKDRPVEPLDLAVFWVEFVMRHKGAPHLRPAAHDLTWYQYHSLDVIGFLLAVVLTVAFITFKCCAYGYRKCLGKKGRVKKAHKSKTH

[3] = molecular target: T3, UGT1A9 (Homo sapiens, UniProt O60656); assay: UGT1A9 inhibition by XueBiJing compounds, cDNA-expressed enzyme [4-MU→4-MUG]; type: in vitro ADME
T3 sequence (O60656 26-530): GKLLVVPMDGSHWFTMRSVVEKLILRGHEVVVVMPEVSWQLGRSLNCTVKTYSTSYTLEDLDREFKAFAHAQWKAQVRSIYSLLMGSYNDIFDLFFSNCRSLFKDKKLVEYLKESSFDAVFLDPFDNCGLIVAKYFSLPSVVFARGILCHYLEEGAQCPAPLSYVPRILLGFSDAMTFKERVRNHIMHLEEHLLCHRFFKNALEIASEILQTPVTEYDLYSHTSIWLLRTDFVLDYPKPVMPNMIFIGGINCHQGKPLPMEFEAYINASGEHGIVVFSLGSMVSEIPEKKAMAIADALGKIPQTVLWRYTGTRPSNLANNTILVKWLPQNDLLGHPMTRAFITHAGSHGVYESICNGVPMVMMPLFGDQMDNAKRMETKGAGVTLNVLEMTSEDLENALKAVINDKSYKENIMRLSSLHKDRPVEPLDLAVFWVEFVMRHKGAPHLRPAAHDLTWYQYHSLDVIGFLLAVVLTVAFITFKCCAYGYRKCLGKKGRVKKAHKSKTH

[4] = molecular target: OATP1B1 (Homo sapiens, UniProt Q9Y6L6); assay: OATP1B1 inhibition by XueBiJing compounds, transfected HEK293 cells [E217βG]; type: in vitro ADME
[5] = molecular target: T4, OAT3 (Homo sapiens, UniProt Q8TCC7); type: in vitro ADME
T4 sequence (Q8TCC7 1-542): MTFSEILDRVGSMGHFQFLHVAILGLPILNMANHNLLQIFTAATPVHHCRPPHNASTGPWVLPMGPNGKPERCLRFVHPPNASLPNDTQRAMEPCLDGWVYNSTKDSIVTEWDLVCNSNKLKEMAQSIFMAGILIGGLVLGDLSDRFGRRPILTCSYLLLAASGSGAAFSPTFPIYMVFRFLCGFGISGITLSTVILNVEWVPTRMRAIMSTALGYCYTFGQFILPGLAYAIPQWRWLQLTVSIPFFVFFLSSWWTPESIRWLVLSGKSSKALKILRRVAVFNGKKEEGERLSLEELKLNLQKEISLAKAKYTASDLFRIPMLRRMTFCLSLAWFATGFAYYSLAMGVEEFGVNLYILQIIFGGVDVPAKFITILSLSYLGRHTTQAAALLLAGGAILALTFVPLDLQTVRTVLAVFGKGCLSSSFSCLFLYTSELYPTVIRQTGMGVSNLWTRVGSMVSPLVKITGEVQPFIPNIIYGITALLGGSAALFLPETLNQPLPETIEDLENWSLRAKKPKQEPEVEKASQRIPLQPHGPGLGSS

[6] = molecular target: CYP2C9 (Homo sapiens, UniProt P11712); type: in vitro ADME
[7] = molecular target: T1, CYP2C19; type: in vitro ADME
[8] = tested on: CYP2B6; assay: CYP2B6 induction by XueBiJing compounds in cryopreserved human hepatocytes; type: in vitro ADME; settings: higher concentrations; range over the named compounds and enzymes
[9] = tested on: human drug metabolizing enzymes and transporters; assay: Inhibitory DDI index of XueBiJing compounds as perpetrators; settings: XueBiJing at label dose; range over the named compounds
[10] = tested on: P450 enzymes, UGTs, SULTs, OATP1B1/1B3, OAT1/3, OCT2, MATE1/2-K, MDR1, BCRP; settings: cited from earlier work
[11] = tested on: CYP1A2; settings: higher concentrations; range over the named compounds and enzymes
[12] = tested on: CYP3A4; settings: higher concentrations; range over the named compounds and enzymes
[13] = XueBiJing compounds, cited from earlier work

T1 sequence (P33261 whole entry): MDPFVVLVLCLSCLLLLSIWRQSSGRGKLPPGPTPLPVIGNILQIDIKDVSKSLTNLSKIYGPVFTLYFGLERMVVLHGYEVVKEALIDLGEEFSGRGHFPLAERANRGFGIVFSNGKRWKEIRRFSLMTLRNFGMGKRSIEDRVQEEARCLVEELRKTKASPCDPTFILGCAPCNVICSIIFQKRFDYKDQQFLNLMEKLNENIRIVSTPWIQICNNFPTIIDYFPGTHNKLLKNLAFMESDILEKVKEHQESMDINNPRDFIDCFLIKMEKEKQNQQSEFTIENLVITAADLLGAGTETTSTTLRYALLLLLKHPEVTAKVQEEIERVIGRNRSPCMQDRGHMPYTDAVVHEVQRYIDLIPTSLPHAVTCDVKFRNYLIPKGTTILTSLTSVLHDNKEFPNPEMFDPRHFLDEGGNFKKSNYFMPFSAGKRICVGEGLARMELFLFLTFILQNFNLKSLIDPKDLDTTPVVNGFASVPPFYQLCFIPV
Chain of OATP1B1 (Q9Y6L6 whole entry): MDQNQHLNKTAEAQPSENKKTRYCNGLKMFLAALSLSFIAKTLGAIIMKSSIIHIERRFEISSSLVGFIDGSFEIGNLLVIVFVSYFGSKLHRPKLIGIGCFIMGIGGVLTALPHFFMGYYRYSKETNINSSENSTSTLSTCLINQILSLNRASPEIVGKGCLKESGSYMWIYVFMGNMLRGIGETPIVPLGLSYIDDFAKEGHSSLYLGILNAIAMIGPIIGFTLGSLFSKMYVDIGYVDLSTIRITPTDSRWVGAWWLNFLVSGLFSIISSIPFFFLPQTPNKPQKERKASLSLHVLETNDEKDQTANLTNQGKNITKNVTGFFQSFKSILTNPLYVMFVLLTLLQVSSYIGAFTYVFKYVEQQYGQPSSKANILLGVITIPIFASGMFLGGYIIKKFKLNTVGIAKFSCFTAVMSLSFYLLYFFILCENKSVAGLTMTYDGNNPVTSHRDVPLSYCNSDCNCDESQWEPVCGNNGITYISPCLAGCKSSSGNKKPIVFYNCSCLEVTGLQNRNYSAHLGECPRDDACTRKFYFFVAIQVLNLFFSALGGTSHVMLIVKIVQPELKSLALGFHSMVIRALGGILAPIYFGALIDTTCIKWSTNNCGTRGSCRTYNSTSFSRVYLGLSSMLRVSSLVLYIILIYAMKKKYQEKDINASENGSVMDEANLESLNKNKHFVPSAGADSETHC
Chain of CYP2C9 (P11712 whole entry): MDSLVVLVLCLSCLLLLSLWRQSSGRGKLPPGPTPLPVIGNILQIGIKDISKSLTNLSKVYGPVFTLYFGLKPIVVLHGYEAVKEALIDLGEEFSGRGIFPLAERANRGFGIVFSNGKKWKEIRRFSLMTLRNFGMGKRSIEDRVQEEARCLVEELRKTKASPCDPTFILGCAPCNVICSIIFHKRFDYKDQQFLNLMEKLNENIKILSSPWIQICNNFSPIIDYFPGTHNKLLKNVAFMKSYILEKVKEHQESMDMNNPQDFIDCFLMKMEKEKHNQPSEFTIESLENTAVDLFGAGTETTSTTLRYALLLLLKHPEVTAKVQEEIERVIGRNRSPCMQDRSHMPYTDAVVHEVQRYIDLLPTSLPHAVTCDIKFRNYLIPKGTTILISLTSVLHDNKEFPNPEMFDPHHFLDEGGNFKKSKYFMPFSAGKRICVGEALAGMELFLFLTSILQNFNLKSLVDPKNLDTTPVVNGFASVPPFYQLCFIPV

**Q.** What does the source list for `O=C(/C=C/c1ccc(O)c2c1[C@H](C(=O)O[C@H](Cc1ccc(O)c(O)c1)C(=O)O)[C@@H](c1ccc(O)c(O)c1)O2)O[C@H](Cc1ccc(O)c(O)c1)C(=O)O` [X10, salvianolic acid B]?
**A.** IC50 [1]: 19 ± 4 µM; inhibition at 100 μmol/L ([1]; human, cDNA-expressed CYP2C19, probe CEC (25 μmol/L)): 68 to 80%; IC50 [2]: 15 ± 1 µM; inhibition at 100 μmol/L ([2]; human, cDNA-expressed UGT1A6, probe 4-MU (100 μmol/L), 4-MUG formed): > 90%; IC50 [3]: 3 ± 1 µM; inhibition at 100 μmol/L ([3]; human, cDNA-expressed UGT1A9, probe 4-MU (10 μmol/L), 4-MUG formed): > 90%; IC50 [4]: 38 ± 3 µM; IC50 [5]: 31 ± 8 µM; Time-dependent inhibition of CYP2C9 [6]: negligible; Time-dependent inhibition of CYP2C19 [7]: negligible; mRNA-T/U ratio, CYP2B6 [8]: 4.0 to 9.6; DDI index for inhibition of CYP2C9, CYP2C19, OATP1B1, OATP1B3, OAT1 and/or OAT3 [9]: 0.00003–0.06; Related metabolism and transport data (substrate status) [10]: Highly selective OATP1B3 substrate; also recorded: COMT substrate; mRNA-T/U ratio, CYP1A2 [11]: 4.0 to 9.6; mRNA-T/U ratio, CYP3A4 [12]: 4.0 to 9.6; pKa [13]: 2.8; LogD(7.4) ([13]; pH 7.4): −2.8
